From patent US20230159510A1, “NOVEL PRMT5 INHIBITORS” (AMGEN INC., priority 2020, published 2023)
Read-outs that look alike come from different tables or passages of the source.

Columns and labels:
HCT116 MTAP null cells = experiment: HCT116 proliferation assay, MTAP null cells (CellTiter-Glo, 6 days); type: cell-based; conditions: read-out: Protif_ HCT116-MTAP null IC50
Experimental: (§1) HCT116 MTAP null and WT cells were seeded in 96-well tissue culture plates in RPMI 1640 media + 10% fetal bovine serum. Plates were incubated overnight at 37° C. and 5% CO2. Cells were then treated with a 8- or 9-point serial dilution of compound, using a top concentration of 1 or 10 µM, 1:3 serial dilution steps and, a DMSO-only control. Cells were incubated in the presence of drug for 6 days. Effects on cell viability were measured with the CellTiter-Glo® Luminescent Cell Viability Assay (Promega) per manufacturer’s recommendation. Assay plates were read on an EnVision™ Multilabel Reader using the Ultra-Sensitive luminescence module.

HCT116 WT cells = experiment: HCT116 proliferation assay, WT cells (CellTiter-Glo, 6 days); type: cell-based; conditions: read-out: Prolif_HCT116-WT IC50
Experimental: as §1

Molecule | IC50 (HCT116 MTAP null cells; HCT116-MTAP null, 144 h) [nM] | IC50 (HCT116 WT cells; Homo sapiens, HCT-116, 144 h) [nM] | IC50 (HCT116 MTAP null cells; 144 h) [nM] | IC50 (HCT116 MTAP null cells) [nM] | IC50 (HCT116 WT cells) [nM]
Cc1cc2cc(C(=O)N(Cc3ccc(C(F)(F)F)cn3)Cc3ncc(Cl)cn3)ccc2nc1N [Example 339, 2-amino-N-((5-chloro-2-pyrimidinyl)methyl)-3-methyl-N-((5-(trifluoromethyl)-2-pyridinyl)methyl)-6-quinolinecarboxamide] | 405 | > 10000 | – | – | –
COC[C@@H](C)N(Cc1ccc(OC)nn1)C(=O)c1ccc2nc(N)c(C)cc2c1 [Example 789, 2-amino-N-((2R)-1-methoxy-2-propanyl)-N-((6-methoxy-3-pyridazinyl)methyl)-3-methyl-6-quinolinecarboxamide] | 162 | 6150 | – | – | –
COC[C@@H](C)N(Cc1ccc(C(F)(F)F)cn1)C(=O)c1ccc2nc(N)c(C)cc2c1C [Example 771, 2-amino-N-((2R)-1-methoxy-2-propanyl)-3,5-dimethyl-N-((5-(trifluoromethyl)-2-pyridinyl)methyl)-6-quinolinecarboxamide] | 270 | > 10000 | – | – | –
C[C@H](c1ncccn1)N(Cc1cc2c(cn1)OCCC2)C(=O)c1ccc2nc(N)c(Br)cc2c1 [Example 777, (R)-2-amino-3-bromo-N-((3,4-dihydro-2H-pyrano[2,3-c]pyridin-6-yl)methyl)-N-(1-(pyrimidin-2-yl)ethyl)quinoline-6-carboxamide] | 372 | > 10000 | – | – | –
Cc1cc2cc(C(=O)N(Cc3ccc(C(F)(F)F)cn3)[C@@H]3CCC[C@H]3OC(F)F)ccc2nc1N [Example 816, 2-amino-N-((1R,2R)-2-(difluoromethoxy)cyclopentyl)-3-methyl-N-((5-(trifluoromethyl)pyridin-2-yl)methyl)quinoline-6-carboxamide] | 18 | 368 | – | – | –
Cc1cc2cc(C(=O)N(Cc3ccc(C(F)(F)F)cn3)C(C)c3ccnc(F)c3)ccc2nc1N (stereo not shown) [Example 797, 2-amino-N-(1-(2-fluoropyridin-4-yl)ethyl)-3-methyl-N-((5-(trifluoromethyl)pyridin-2-yl)methyl)quinoline-6-carboxamide] | 229 | 3820 | – | – | –
Cc1cc2cc(C(=O)N(Cc3ccc(C(F)(F)F)cn3)CC(C)C)ccc2nc1N [Example 300, 2-amino-N-isobutyl-3-methyl-N-((5-(trifluoromethyl)pyridin-2-yl)methyl)quinoline-6-carboxamide] | – | 5300 | 317 | – | –
C[C@H](c1ncccn1)N(Cc1ccc(Cl)cn1)C(=O)c1cnc2nc(N)c(I)cc2c1 [Example 768, (R)-7-amino-N-((5-chloropyridin-2-yl)methyl)-6-iodo-N-(1-(pyrimidin-2-yl)ethyl)-1,8-naphthyridine-3-carboxamide] | 116 | 3960 | – | – | –
Cc1cc2cc(C(=O)N(Cc3cc4ccccc4cn3)C(C)c3ncccn3)ccc2nc1N (stereo not shown) [Example 792, 2-amino-N-(isoquinolin-3-ylmethyl)-3-methyl-N-(1-(pyrimidin-2-yl)ethyl)quinoline-6-carboxamide] | 119 | 3840 | – | – | –
Cc1cc2cc(C(=O)N(Cc3ccc(C(F)(F)F)cn3)Cc3ncoc3C)ccc2nc1N [Example 579, 2-amino-3-methyl-N-[(5-methyloxazol-4-yl)methyl]-N-[[5-(trifluoromethyl)-2-pyridyl]methyl]quinoline-6-carboxamide] | 95 | > 1000 | – | – | –
CC(c1cscn1)N(Cc1ccc(C(F)(F)F)nn1)C(=O)c1cnc2nc(N)c(Br)cc2c1 (stereo not shown) [Example 766, 7-amino-6-bromo-N-(1-(thiazol-4-yl)ethyl)-N-((6-(trifluoromethyl)pyridazin-3-yl)methyl)-1,8-naphthyridine-3-carboxamide] | 161 | 5900 | – | – | –
COc1ccc(CN(C(=O)c2ccc3nc(N)c(Br)cc3c2)[C@H](C)c2ncccc2F)nn1 [Example 736, 2-amino-3-bromo-N-((1R)-1-(3-fluoro-2-pyridinyl)ethyl)-N-((6-methoxy-3-pyridazinyl)methyl)-6-quinolinecarboxamide] | 151 | 6960 | – | – | –
CO[C@@H]1COCC[C@H]1N(Cc1ccc(C(F)(F)F)cn1)C(=O)c1ccc2nc(N)c(Br)cc2c1 [Example 829, 2-amino-3-bromo-N-((3S,4R)-3-methoxytetrahydro-2H-pyran-4-yl)-N-((5-(trifluoromethyl)pyridin-2-yl)methyl) quinoline-6-carboxamide] | 840 | > 10000 | – | – | –
CC1CCCC1N(Cc1ccc(C(F)(F)F)cn1)C(=O)c1ccc2nc(N)c(Br)cc2c1 (stereo not shown) [Example 831, 2-amino-3-bromo-N-(2-methylcyclopentyl)-N-((5-(trifluoromethyl)pyridin-2-yl)methyl)quinoline-6-carboxamide] | 440 | > 10000 | – | – | –
COc1ccc(CN(C(=O)c2ccc3nc(N)c(C)cc3c2)[C@H](C)c2ncn(C)n2)nn1 (single isomer, unassigned) [Example 785] | 123 | 2600 | – | – | –
CC(C)CN(Cc1ccc(C(F)(F)F)cn1)C(=O)c1ccc2nc(N)c(-c3ccccc3)cc2c1 [Example 834, 2-Amino-N-(2-methylpropyl)-3-phenyl-N-((5-(trifluoromethyl)-2-pyridinyl)methyl)-6-quinolinecarboxamide] | 523 | 3190 | – | – | –
N#CC[C@@H](C1CC1)N(Cc1ccc(C#N)cn1)C(=O)c1ccc2nc(N)c(I)cc2c1 [Example 837, (S)-2-amino-N-(2-cyano-1-cyclopropylethyl)-N-((5-cyanopyridin-2-yl)methyl)-3-iodoquinoline-6-carboxamide] | 42 | 2170 | – | – | –
C[C@H](c1ncccn1)N(Cc1cc2c(cn1)OCCC2)C(=O)c1ccc2nc(N)c(I)cc2c1 (single isomer, unassigned) [Example 836] | 129 | > 10000 | – | – | –
Cc1cc2cc(C(=O)N(Cc3ccc(OCC(F)(F)F)nn3)[C@H](C)c3ncccn3)ccc2nc1N [Example 790, (R)-2-amino-3-methyl-N-(1-(pyrimidin-2-yl)ethyl)-N-((6-(2,2,2-trifluoroethoxy)pyridazin-3-yl)methyl) quinoline-6-carboxamide] | 156 | 5160 | – | – | –
2-amino-3-methyl-N-(4-(3-oxetanyl)benzyl)-N-((1R)-1-(2-pyrimidinyl)ethyl)-6-quinolinecarboxamide, 2-amino-3-methyl-N-(4-(3-oxetanyl)benzyl)-N-((1S)-1-(2-pyrimidinyl)ethyl)-6-quinolinecarboxamide [Example 802] | – | – | – | 393 | 9300
Cc1cc2cc(C(=O)N(Cc3ccc(N4CCOCC4)nn3)[C@H](C)c3ncccc3F)ccc2nc1N [Example 823, 2-Amino-N-((1R)-1-(3-fluoro-2-pyridinyl)ethyl)-3-methyl-N-((6-(4-morpholinyl)-3-pyridazinyl)methyl)-6-quinolinecarboxamide] | 41 | 695 | – | – | –
COc1ccc(CN(C(=O)c2cnc3nc(N)c(Br)cc3c2)[C@H](C)c2ncccc2F)nn1 [Example 735, 7-amino-6-bromo-N-((1R)-1-(3-fluoro-2-pyridinyl)ethyl)-N-((6-methoxy-3-pyridazinyl)methyl)-1,8-naphthyridine-3-carboxamide] | 220 | > 10000 | – | – | –
Cc1cc2cc(C(=O)N(Cc3ccc(N4CCC(C(N)=O)CC4)cc3)Cc3ccnc4[nH]ccc34)ccc2nc1N [Example 573, N-((1H-pyrrolo[2,3-b]pyridin-4-yl)methyl)-2-amino-N-(4-(4-carbamoylpiperidin-1-yl)benzyl)-3-methylquinoline-6-carboxamide] | 760 | > 1000 | – | – | –
C[C@H](c1ncccn1)N(Cc1ccc(Br)nn1)C(=O)c1ccc2nc(N)c(I)cc2c1 [Example 767, (R)-2-amino-N-((6-bromopyridazin-3-yl)methyl)-3-iodo-N-(1-(pyrimidin-2-yl)ethyl)quinoline-6-carboxamide] | 56 | 3550 | – | – | –
Cc1cc2cc(C(=O)N(Cc3ccc(C(F)(F)F)cn3)CC(O)C(F)(F)F)ccc2nc1N (stereo not shown) [Example 592, 2-amino-3-methyl-N-(3,3,3-trifluoro-2-hydroxypropyl)-N-((5-(trifluoromethyl)pyridin-2-yl)methyl)quinoline-6-carboxamide] | 407 | > 1000 | – | – | –
CO[C@@H]1COCC[C@H]1N(Cc1ccc(C(F)(F)F)cn1)C(=O)c1ccc2nc(N)c(C)cc2c1 (mixture of isomers) [Example 748, 2-amino-N-((3R,4S)-3-methoxytetrahydro-2H-pyran-4-yl)-3-methyl-N-((5-(trifluoromethyl)-2-pyridinyl)methyl)-6-quinolinecarboxamide and 2-amino-N-((3S,4R)-3-methoxytetrahydro-2H-pyran-4-yl)-3-methyl-N-((5-(trifluoromethyl)-2-pyridinyl)methyl)-6-quinolinecarboxamide] | – | – | – | 84 | 2620
Cc1cc2cc(C(=O)N(Cc3ccc(Cl)nn3)[C@H](C)c3ncccn3)ccc2nc1N (single isomer, unassigned) [Example 819] | 29 | 543 | – | – | –
C[C@H](c1ncccn1)N(Cc1ccc(C(F)(F)F)cn1)C(=O)c1ccc2nc(N)ccc2c1 [Example 765, (R)-2-amino-N-(1-(pyrimidin-2-yl)ethyl)-N-((5-(trifluoromethyl)pyridin-2-yl)methyl)quinoline-6-carboxamide] | 180 | 512 | – | – | –
COC[C@@H](C)N(Cc1ccc(C#N)cn1)C(=O)c1ccc2nc(N)c(Br)cc2c1 [Example 733, 2-amino-3-bromo-N-((5-cyano-2-pyridinyl)methyl)-N-((2R)-1-methoxy-2-propanyl)-6-quinolinecarboxamide] | 434 | > 10000 | – | – | –
